Measured values reported in patent US20250388554A1, “ANTIBACTERIAL COMPOUNDS, METHOD OF PRODUCTION AND USE THEREOF” (priority 2024, published 2025).
Converted amounts (≈) assume the structure as drawn.

Assays:
IGPD (Rv1601) = IGPD (Rv1601) (Mycobacterium tuberculosis, UniProt P9WML9); test: IGPD stopped-assay, IC50 study; type: biochemical
Mtb H37Rv [1] = test: Resazurin assay (REMA) / alamarBlue MIC; type: cell-based; conditions: Mycobacterium tuberculosis, minimal media
[2] = tested on: Mtb H37Rv in RAW 264.7 macrophages; test: Efficacy testing in Mtb infected macrophage model; type: cell-based, Mycobacterium tuberculosis; conditions: RAW 264.7, MOI=10, 3 days of treatment, 0-240 μM
[3] = Acute oral toxicity study (OECD 425), 14 days; conditions: for serum levels of SGOT, SGPT, creatinine, and urea compared to the untreated group: all doses, day 14; for LD50: oral, single dose, mice; for body weight compared to the untreated group: single oral dose, female mice, monitored for 14 days
Method: Healthy CD-1 female mice with weight 34±4 grams were used. The animals were housed individually in cages and maintained in a standard laboratory environment. […] A limit dose of 2000 mg/kg body weight of compound was used involving three mice. Each mouse was treated with a single oral dose of 5, 50, 500, 2000 mg/kg body weight on Day 0. Animals were observed individually at least once during the first 30 min after dosing, periodically during the first 24 h and daily thereafter, for a total of 14 days for any clinical signs of toxicity or mortality. At the end of 14 day's observation period, the animals were anaesthetized, and their blood samples were collected through retro orbital bleeding for biochemical and histopathological studies, respectively. For biochemical analysis, blood was centrifuged at 4000 rpm at 4° C. for 10 min, serum was separated and Serum Glutamate Pyruvic Transaminase (SGPT), Serum Glutamate Oxaloacetic Transaminase (SGOT), creatinine, and, urea were estimated using a semi-automated Biochemical coralyzer. For histopathological studies, the animals were euthanized and the livers and kidneys were harvested and examined macroscopically. These organs were then preserved in 10% formalin made in PBS for histopathological examinations by standard techniques.
For this, the liver and kidney tissue samples were embedded into wax blocks. The wax blocks were subjected to microtome to generate sections, which were then stained with Hematoxylin and Eosin dyes at a commercial facility. The tissue sections were viewed in a bright field microscope at 40× magnification.

Mtb H37Rv [4] = tested on: Mtb H37Rv; set-up: species or system Mycobacterium tuberculosis; conditions: in vivo; for bacterial burden in lungs vs untreated control (CFU) / bacterial burden in spleen vs untreated control (CFU): 100 mg/kg
[5] = single oral dose 5 mg/kg, 5 mice initial, 14 days
[6] = single oral dose 5 mg/kg, 5 mice, 14 days
[7] = single oral dose 50 mg/kg, 5 mice initial, 14 days
[8] = single oral dose 50 mg/kg, 5 mice, 14 days
[9] = single oral dose 500 mg/kg, 5 mice initial, 14 days
[10] = single oral dose 500 mg/kg, 5 mice, 14 days
[11] = female, CD-1, mouse, in vivo, po, 2000 mg/kg, 14 days

Chain of IGPD (Rv1601) (P9WML9 whole entry, looked up): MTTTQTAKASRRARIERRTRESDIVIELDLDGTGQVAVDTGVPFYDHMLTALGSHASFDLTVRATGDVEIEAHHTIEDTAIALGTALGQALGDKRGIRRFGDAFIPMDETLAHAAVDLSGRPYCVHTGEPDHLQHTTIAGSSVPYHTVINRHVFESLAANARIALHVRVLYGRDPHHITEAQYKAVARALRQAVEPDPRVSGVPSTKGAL

Compound | IC50 (IGPD (Rv1601)) [µM] | MIC99 (Mtb H37Rv [1]) [µM] | bacterial load in Mtb infected macrophages (CFU) [2] | serum levels of SGOT, SGPT, creatinine, and urea compared to the untreated group [3] | kidney histology (H&E) ([3]; mouse, in vivo) | liver histology (H&E), FIG. 11 ([3]; mouse, in vivo) | LD50 [3] | Mice number final [3, 5] | Total Deaths (D) [3, 6] | Mice number final [3, 7] | Total Deaths (D) [3, 8] | Mice number final [3, 9] | Total Deaths (D) [3, 10] | body weight compared to the untreated group [3] | bacterial burden with supplementation of histidine (Mtb H37Rv [4]) | bacterial burden in lungs vs untreated control (CFU) (Mtb H37Rv [4]; po) | bacterial burden in spleen vs untreated control (CFU) (Mtb H37Rv [4]; po) | also measured
NCCSc1ncn[nH]1 [SF3, 2-(1H-1,2,4-triazol-5-ylsulfanyl)ethanamine] | 76.9 | 500 (≈ 72.1 µg/mL) | did not reduce the bacterial load | no significant changes | no pathological changes | no pathological changes | below 5000 mg/kg body weight | 5 | 0 | 5 | 0 | 5 | 0 | decreased for 5, 500, and 2000 mg/kg body weight and increased for 5000 mg/kg body weight | restored the bacterial burden to the untreated levels | significant lowering of the bacterial burden | significant lowering of the bacterial burden | clinical signs in surviving mice ([3]; oral 5, 50, 500 and 2000 mg/kg body weight, 14 days): no clinical signs of adverse effects/toxicity; clinical signs ([3]; single dose of 5000 mg/kg, after 12-24 h): slowness and weight decline; Mice number final ([3]; single oral dose 2000 mg/kg, 5 mice initial, 14 days): 3; Total Deaths (D) ([3]; single oral dose 2000 mg/kg, 5 mice, 14 days): 2; Mice number final ([3]; single oral dose 5000 mg/kg, 5 mice initial, 14 days): 2; Total Deaths (D) ([3]; single oral dose 5000 mg/kg, 5 mice, 14 days): 3
CC(N)c1ncnn1C (centres unmarked) [SF1, 1-(2-methyl-1,2,4-triazol-3-yl)ethanamine] | 33.5 | 31.2 (≈ 3.94 µg/mL) | approximately a thousand-fold decline | – | – | – | – | – | – | – | – | – | – | – | – | no reduction in the bacterial burden | no reduction in the bacterial burden | –
CC(C)C(N)c1ncnn1C (centres unmarked) [SF2, 2-methyl-1-(2-methyl-1,2,4-triazol-3-yl)propan-1-amine] | 44.1 | 125 (≈ 19.3 µg/mL) | hundred-fold decline | no significant changes | no pathological changes | no pathological changes | greater than 2000 mg/kg body weight | 5 | 0 | 5 | 0 | 5 | 0 | increased for all doses while a slight dip in weight for 5 mg/kg body weight on 7th day was observed | restored the bacterial burden to the untreated levels | no reduction in the bacterial burden | no reduction in the bacterial burden | Mice number final [3, 11]: 5; Total Deaths (D) [3, 11]: 0; clinical signs in surviving mice ([3]; mouse, in vivo): no clinical signs of adverse effects/toxicity; bacterial load in lungs vs untreated control (CFU) (Mtb H37Rv [4]; po, 200 mg/kg): significant decrease in the bacterial load; reduction in the bacterial load in spleen vs untreated control (CFU) (Mtb H37Rv [4]; po, 200 mg/kg): not found to be statistically significant
